Data published in US20230092001A1, “FURANEOL GLYCOSIDE COMPOUND, PHARMACEUTICAL COMPOSITION THEREOF, PREPARATION METHOD THEREFOR, AND APPLICATION THEREOF” (priority 2019, published 2023).

How the values were obtained:
[1] = test system: ulcerative colitis model (dextran sodium sulphate); experiment: Effect example 2: therapeutic effect on ulcerative colitis, dextran sodium sulphate model, oral gavage, 14 days; format: in vivo, C57 mice; conditions: treatment group 40 mg/kg oral gavage
Method: Thirty-five 10-week-old male C57 mice, SPF class animal house, temperature 20-26° C., humidity 40%-70%, alternating light-dark periods (12 h/12 h).
(§1) Quarantine-qualified animals with similar weights were selected for the experiment.
Mice in the blank control group were given normal drinking water throughout the experiment. The other 6 groups of mice were given drinking water containing 2% dextran sodium sulphate from day 1 to day 5, normal drinking water from day 6 to day 7, drinking water containing 2% dextran sodium sulphate from day 8 to day 12, and normal drinking water from day 13 to day 14. The experiment ended on day 14. All groups were administered by oral gavage once a day according to table 7, until the end of the experiment on day 14.
(§2) (1) The mice were weighed daily.
(2) Blood samples were collected from the orbital vein on day 14 and stored at −80° C.
(3) On day 14, the mice were sacrificed by cervical vertebra dislocation, the colon was removed and a small amount of fecal was taken from the colon and left as a sample. The colon length and colon weight were measured. A portion of the colon and the fecal sample was stored at −80° C.

[2] = test system: ulcerative colitis model (dextran sodium sulphate); experiment: Effect Example 3: therapeutic effect on ulcerative colitis, dextran sodium sulphate model, oral gavage, 7 days; format: in vivo, C57 mice; conditions: 40 mg/kg oral gavage; for Average colon length of mice: day 7
Method: Fifty 10-week-old male C57 mice, SPF class animal house, temperature 20-26° C., humidity 40%-70%, alternating light-dark periods (12 h/12 h).
as §1
Mice in the blank control group were given normal drinking water throughout the experiment. The other 9 groups of mice were given drinking water containing 2% dextran sodium sulphate from day 1 to day 7. All groups were administered by oral gavage once a day according to table 10, until the end of the experiment.
as §2
(2) Blood samples were collected from the orbital vein on day 7 and stored at −80° C.
(3) On day 7, the mice were sacrificed by cervical vertebra dislocation, the colon was removed and a small amount of fecal was taken from the colon and left as a sample. The colon length and colon weight were measured. A portion of the colon and the fecal sample was stored at −80° C.

## CC(=O)OC[C@H]1O[C@@H](OC2=C(C)OC(=C(C)C)C2=O)[C@H](OC(C)=O)[C@@H](OC(C)=O)[C@@H]1OC(C)=O [Compound I-2, 4-O-[(2,3,4,6-tetra-O-acetyl)-β-D-glucosyl]-5-methyl-2-(1-methylethylidene)-3(2H)-furanone]
[1]; Day 1
  Average weight of mice: 26.86 g
[1]; Day 2
  Average weight of mice: 26.9 g
[1]; Day 3
  Average weight of mice: 26.82 g
[1]; Day 4
  Average weight of mice: 26.86 g
[1]; Day 5
  Average weight of mice: 26.58 g
[1]; Day 6
  Average weight of mice: 26.48 g
[1]; Day 7
  Average weight of mice: 25.18 g
[1]; Day 8
  Average weight of mice: 23.78 g
[1]; Day 9
  Average weight of mice: 23.64 g
[1]; Day 10
  Average weight of mice: 23.64 g
[1]; Day 11
  Average weight of mice: 24.72 g
[1]; Day 12
  Average weight of mice: 24.82 g
[1]; Day 13
  Average weight of mice: 24.8 g
[1]; Day 14
  Average weight of mice: 24.92 g
[1]; day 14
  Average colon length of mice: 6.2 cm
[2]; Day 1
  Average weight of mice: 21.53 g
[2]; Day 2
  Average weight of mice: 21.42 g
[2]; Day 3
  Average weight of mice: 21.25 g
[2]; Day 4
  Average weight of mice: 20.97 g
[2]; Day 5
  Average weight of mice: 20.72 g
[2]; Day 6
  Average weight of mice: 20.27 g
[2]; Day 7
  Average weight of mice: 19.27 g
[2]
  Average colon length of mice: 5.8 cm

## CC(=O)OC[C@H]1O[C@@H](OC2=C(C)OC(=C3CCNCC3)C2=O)[C@H](OC(C)=O)[C@@H](OC(C)=O)[C@@H]1OC(C)=O [Compound I-11]
[2]
  Effect on the colon length (in words): can gradually restore the colon length
  Average colon length of mice: 6.2 cm
[2]; Day 1
  Average weight of mice: 21.62 g
[2]; Day 2
  Average weight of mice: 21.30 g
[2]; Day 3
  Average weight of mice: 21.10 g
[2]; Day 4
  Average weight of mice: 20.97 g
[2]; Day 5
  Average weight of mice: 20.32 g
[2]; Day 6
  Average weight of mice: 19.93 g
[2]; Day 7
  Average weight of mice: 19.30 g

## CCOC(=O)OC[C@H]1O[C@@H](OC2=C(C)OC(=C(C)C)C2=O)[C@H](O)[C@@H](O)[C@@H]1O [Compound I-7]
[2]; Day 1
  Average weight of mice: 21.47 g
[2]; Day 2
  Average weight of mice: 21.62 g
[2]; Day 3
  Average weight of mice: 21.18 g
[2]; Day 4
  Average weight of mice: 20.82 g
[2]; Day 5
  Average weight of mice: 20.13 g
[2]; Day 6
  Average weight of mice: 20.07 g
[2]; Day 7
  Average weight of mice: 19.88 g
[2]
  Average colon length of mice: 5.4 cm
